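GI50 = concentration required for 50% inhibition of growth. TGI marks complete inhibition of growth.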
Experiments:
Assay in all cases: inhibition of tumour cell growth, NCI panel, 384-well format
A498 renal = system: A498 renal
OVCAR-8 ovarian = system: OVCAR-8 ovarian
LOX IMVI melanoma = system: LOX IMVI melanoma
SF-268 CNS = system: SF-268 CNS
UACC-62 melanoma = system: UACC-62 melanoma
SK-MEL-28 melanoma = system: SK-MEL-28 melanoma
SR leukemia = system: SR leukemia
ACHN renal = system: ACHN renal
K-562 leukemia = system: K-562 leukemia
T-47D breast = system: T-47D breast
OVCAR-3 ovarian = system: OVCAR-3 ovarian
EKVX NSCLC = system: EKVX NSCLC
M14 melanoma = system: M14 melanoma
MDA-MB-468 breast = system: MDA-MB-468 breast
DU-145 prostate = system: DU-145 prostate
SN12C renal = system: SN12C renal
KM12 colon = system: KM12 colon
A549 NSCLC = system: A549 NSCLC
786-0 renal = system: 786-0 renal
MDA-MB-231 breast = system: MDA-MB-231 breast
NCI-H522 lung = system: NCI-H522 lung
OVCAR-4 ovarian = system: OVCAR-4 ovarian
MALME-3M melanoma = system: MALME-3M melanoma
SNB-75 CNS = system: SNB-75 CNS
NCI-H226 lung = system: NCI-H226 lung
SF-539 CNS = system: SF-539 CNS
UACC-257 melanoma = system: UACC-257 melanoma
SW-620 colon = system: SW-620 colon
NCI-H23 lung = system: NCI-H23 lung
SK-MEL-5 melanoma = system: SK-MEL-5 melanoma
RXF 393 renal = system: RXF 393 renal
NCI-H322M lung = system: NCI-H322M lung
NCI-H460 NSCLC = system: NCI-H460 NSCLC
HCT-15 colon = system: HCT-15 colon
MCF7 breast = system: MCF7 breast
COLO 205 colon = system: COLO 205 colon
TK-10 renal = system: TK-10 renal
BT-549 breast = system: BT-549 breast
U251 glioblastoma = system: U251 glioblastoma
MDA-MB-435 melanoma = system: MDA-MB-435 melanoma
NCI/ADR-RES ovarian = system: NCI/ADR-RES ovarian
UO-31 renal = system: UO-31 renal
SNB-19 CNS = system: SNB-19 CNS
HCC-2998 colon = system: HCC-2998 colon
PC-3 prostate = system: PC-3 prostate
RPMI-8226 leukemia = system: RPMI-8226 leukemia
MOLT-4 leukemia = system: MOLT-4 leukemia
SF-295 CNS = system: SF-295 CNS
SK-OV-3 ovarian = system: SK-OV-3 ovarian
HOP-62 NSCLC = system: HOP-62 NSCLC
HT29 colon = system: HT29 colon
HL-60(TB) leukemia = system: HL-60(TB) leukemia
HS 578T breast = system: HS 578T breast

Structure (SMILES): CC(C)c1cc(CNc2nc(Nc3cc(C4CC4)[nH]n3)cc(N3CCN(C)CC3)n2)on1
- GI50 (A498 renal): 0.189 µM
- TGI (A498 renal): 12.4 µM
- GI50 (OVCAR-8 ovarian): 0.165 µM
- TGI (OVCAR-8 ovarian): 1.15 µM
- GI50 (LOX IMVI melanoma): 0.0298 µM
- TGI (LOX IMVI melanoma): 0.164 µM
- GI50 (SF-268 CNS): 0.0307 µM
- TGI (SF-268 CNS): 0.26 µM
- GI50 (UACC-62 melanoma): 0.0473 µM
- TGI (UACC-62 melanoma): 1.59 µM
- GI50 (SK-MEL-28 melanoma): 0.121 µM
- TGI (SK-MEL-28 melanoma): 1.39 µM
- GI50 (SR leukemia): < 0.01 µM
- GI50 (ACHN renal): 0.225 µM
- TGI (ACHN renal): 13.4 µM
- GI50 (K-562 leukemia): < 0.01 µM
- TGI (K-562 leukemia): 0.0178 µM
- GI50 (T-47D breast): 0.267 µM
- TGI (T-47D breast): 17.3 µM
- GI50 (OVCAR-3 ovarian): 0.0316 µM
- TGI (OVCAR-3 ovarian): 0.4 µM
- GI50 (EKVX NSCLC): 0.0288 µM
- TGI (EKVX NSCLC): 0.359 µM
- GI50 (M14 melanoma): 0.016 µM
- TGI (M14 melanoma): 1.74 µM
- GI50 (MDA-MB-468 breast): 0.0141 µM
- TGI (MDA-MB-468 breast): 0.0426 µM
- GI50 (DU-145 prostate): 0.12 µM
- TGI (DU-145 prostate): 0.769 µM
- GI50 (SN12C renal): 0.0224 µM
- TGI (SN12C renal): 0.207 µM
- GI50 (KM12 colon): < 0.01 µM
- TGI (KM12 colon): 0.0638 µM
- GI50 (A549 NSCLC): 0.0201 µM
- TGI (A549 NSCLC): 6.83 µM
- GI50 ([…]-0 renal): 0.135 µM
- TGI (786-0 renal): 0.904 µM
- GI50 (MDA-MB-231 breast): 0.0378 µM
- TGI (MDA-MB-231 breast): 1.49 µM
- GI50 (NCI-H522 lung): 0.0149 µM
- TGI (NCI-H522 lung): 0.598 µM
- GI50 (OVCAR-4 ovarian): 1.16 µM
- TGI (OVCAR-4 ovarian): 4.54 µM
- GI50 (MALME-3M melanoma): 0.0455 µM
- TGI (MALME-3M melanoma): 1.85 µM
- GI50 (SNB-75 CNS): 0.0136 µM
- TGI (SNB-75 CNS): 0.165 µM
- GI50 (NCI-H226 lung): 0.0174 µM
- TGI (NCI-H226 lung): 0.132 µM
- GI50 (SF-539 CNS): 0.0311 µM
- TGI (SF-539 CNS): 0.228 µM
- GI50 (UACC-257 melanoma): 1.23 µM
- TGI (UACC-257 melanoma): 2.73 µM
- GI50 (SW-620 colon): 0.0239 µM
- TGI (SW-620 colon): 1.19 µM
- GI50 (NCI-H23 lung): 0.0145 µM
- TGI (NCI-H23 lung): 0.189 µM
- GI50 (SK-MEL-5 melanoma): 0.258 µM
- TGI (SK-MEL-5 melanoma): 1.73 µM
- GI50 (RXF 393 renal): 0.0604 µM
- TGI (RXF 393 renal): 0.248 µM
- GI50 (NCI-H322M lung): 0.238 µM
- TGI (NCI-H322M lung): 1.28 µM
- GI50 (NCI-H460 NSCLC): < 0.01 µM
- TGI (NCI-H460 NSCLC): 0.141 µM
- GI50 (HCT-15 colon): 0.246 µM
- TGI (HCT-15 colon): 2.93 µM
- GI50 (MCF7 breast): < 0.01 µM
- TGI (MCF7 breast): 10.9 µM
- GI50 (COLO 205 colon): < 0.01 µM
- TGI (COLO 205 colon): 0.0211 µM
- GI50 (TK-10 renal): 0.137 µM
- TGI (TK-10 renal): 0.587 µM
- GI50 (BT-549 breast): 0.0341 µM
- TGI (BT-549 breast): 0.197 µM
- GI50 (U251 glioblastoma): 0.209 µM
- TGI (U251 glioblastoma): 10.5 µM
- GI50 (MDA-MB-435 melanoma): 0.209 µM
- TGI (MDA-MB-435 melanoma): 2.42 µM
- GI50 (NCI/ADR-RES ovarian): 2.67 µM
- TGI (NCI/ADR-RES ovarian): 14.1 µM
- GI50 (UO-31 renal): 0.221 µM
- TGI (UO-31 renal): 1.27 µM
- GI50 (SNB-19 CNS): 0.136 µM
- TGI (SNB-19 CNS): 11.7 µM
- GI50 (HCC-2998 colon): 0.203 µM
- TGI (HCC-2998 colon): 1.98 µM
- GI50 (PC-3 prostate): 0.0815 µM
- TGI (PC-3 prostate): 2.61 µM
- GI50 (RPMI-8226 leukemia): 0.0196 µM
- TGI (RPMI-8226 leukemia): 0.188 µM
- GI50 (MOLT-4 leukemia): < 0.01 µM
- TGI (MOLT-4 leukemia): 0.0169 µM
- GI50 (SF-295 CNS): 0.063 µM
- TGI (SF-295 CNS): 1.05 µM
- GI50 (SK-OV-3 ovarian): 0.0696 µM
- TGI (SK-OV-3 ovarian): 12.7 µM
- GI50 (HOP-62 NSCLC): 0.0692 µM
- TGI (HOP-62 NSCLC): 0.306 µM
- GI50 (HT29 colon): 0.0217 µM
- TGI (HT29 colon): 1.48 µM
- GI50 (HL-60(TB) leukemia): < 0.01 µM
- GI50 (HS 578T breast): 0.0423 µM
- TGI (HS 578T breast): 0.204 µM
